# Test results: US11339171B2, “MDM2 inhibitors” (Gan & Lee Pharmaceuticals, priority 2017, dated 2022)
# “And” between values parts separate entries of the source, which are not always exact repeats. Equal entries are not always repeated. Where two headings read alike, the source gives them in different places.
# Assays:
# MDM2 = molecular target: T1, MDM2 (Homo sapiens, UniProt Q00987); test: Inhibition test of MDM2-P53 (GST-MDM2, Biotin-P53, Anti-GST-Tb, SA-XL665); format: binding
# T1 construct: made in house
# T1 sequence (Q00987 whole entry): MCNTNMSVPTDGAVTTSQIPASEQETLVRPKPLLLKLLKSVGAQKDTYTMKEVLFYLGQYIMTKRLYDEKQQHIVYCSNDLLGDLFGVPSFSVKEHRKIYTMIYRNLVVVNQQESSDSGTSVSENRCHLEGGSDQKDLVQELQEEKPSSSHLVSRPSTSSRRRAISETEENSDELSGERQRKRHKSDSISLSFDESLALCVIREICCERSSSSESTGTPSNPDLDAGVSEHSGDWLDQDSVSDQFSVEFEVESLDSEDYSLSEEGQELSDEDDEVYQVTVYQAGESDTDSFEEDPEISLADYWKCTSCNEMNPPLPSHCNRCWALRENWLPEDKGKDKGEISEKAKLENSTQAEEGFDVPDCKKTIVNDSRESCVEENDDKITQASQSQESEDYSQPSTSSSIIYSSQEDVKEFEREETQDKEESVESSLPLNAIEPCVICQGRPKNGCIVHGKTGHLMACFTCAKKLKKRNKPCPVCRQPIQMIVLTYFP
# How it was run: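 Binding was measured by TR-FRET with GST-MDM2 at 4 nM final in PBS with 0.1% BSA, 5 mM DTT and 1 mM AEBSF. Compounds were tested as twelve-point 5-fold dilutions and incubated with the detection mix for 90 min at 25 °C with shaking before plate-reader reading and curve fitting.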
# [1] = Pharmacokinetics in ICR mice after intravenous and intragastric administration; format: in vivo; settings: for MRT last: read-out: MRT(0-t); for MRT inf: read-out: MRT(0-∞); for Vd: read-out: Vz; for half-life: read-out: t1/2 (converted)
# How it was run: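 Plasma concentration-time data, quantified by LC-MS/MS with a 1 ng/mL lower limit, gave AUC, t1/2, MRT, Cmax, Tmax, bioavailability, Vz and clearance. Overnight-fasted male ICR mice (three per route) received 2 mg/kg intravenously or 5 mg/kg intragastrically.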
# [2] = system: human osteosarcoma cell line SJSA-1; test: Inhibition of proliferation of human osteosarcoma cell line SJSA-1 (DAPI staining, In Cell Analyzer); settings: Homo sapiens, SJSA-1, 72 h, read-out: IC50 (nM), inhibitory activity on proliferation of human osteosarcoma cell line SJSA-1, SJSA-1, incubated 72 h
# [3] = IV 2 mg/kg, ICR mice, individual animal, 2 mg/kg
# [4] = PO 5 mg/kg, ICR mice, individual animal, 5 mg/kg
# [5] = male, ICR, mouse, plasma, iv, 2 mg/kg, IV 2 mg/kg, ICR mice, Mean
# [6] = male, ICR, mouse, plasma, iv, 2 mg/kg, IV 2 mg/kg, ICR mice, individual animal
# [7] = male, ICR, mouse, plasma, po, 5 mg/kg, PO 5 mg/kg, ICR mice, Mean
# [8] = male, ICR, mouse, plasma, po, 5 mg/kg, PO 5 mg/kg, ICR mice, individual animal
compound,measurement,setting,value
"COc1ccc(-c2nc3c(n2C(C)C)[C@@]2(C(=O)Nc4cc(Cl)ccc42)N(c2cc(Cl)ccc2C)C3=O)c(OC)c1 [Example S-9, (S)-6-chloro-5′-(5-chloro-2-methylphenyl)-2′-(2,4-dimethoxyphenyl)-3′-isopropyl-3′H-spiro[dihydroindole-3,4′-pyrrolo[3,4-d]imidazole]-2,6′(5′H)-dione]",IC50,MDM2,2.38 nM
same,AUC(0-t),[1]; [3],4107.04 ng·h/mL and 3334.44 ng·h/mL
same,AUC(0-∞),[1]; [3],4214.93 ng·h/mL and 3452.37 ng·h/mL
same,CL,[1]; [3],474.50 mL/h/kg and 579.31 mL/h/kg
same,Cmax,[1]; [3],1643.99 ng/mL and 1403.26 ng/mL
same,MRT(0-t),[1]; [3],1.47 h
same,MRT(0-∞),[1]; [3],1.63 h and 1.68 h
same,Vz,[1]; [3],793.38 mL/kg and 1055.16 mL/kg
same,t1/2,[1]; [3],1.16 h and 1.26 h
same,F*,"[1]; PO 5 mg/kg vs IV 2 mg/kg, ICR mice",79.30%
same,AUC(0-t),[1]; [4],8692.39 ng·h/mL and 6976.33 ng·h/mL
same,AUC(0-∞),[1]; [4],8911.44 ng·h/mL and 7048.92 ng·h/mL
same,Cmax,[1]; [4],2009.05 ng/mL and 1914.07 ng/mL
same,MRT(0-t),[1]; [4],2.60 h and 2.68 h
same,MRT(0-∞),[1]; [4],2.78 h and 2.75 h
same,Tmax,[1]; [4],1.00 h
same,t1/2,[1]; [4],1.44 h and 1.22 h
same,AUC(0-inf),[1]; [5],3830 ng·h/mL
same,clearance,[1]; [5],8.76 mL/min/kg
same,AUC(0-t),"[1]; male, ICR, mouse, plasma, iv, 2 mg/kg, IV 2 mg/kg, ICR mice, Mean, read-out: AUC(0-t)",3700 ng·h/mL
same,Cmax,"[1]; male, ICR, mouse, plasma, iv, 2 mg/kg, IV 2 mg/kg, ICR mice, Mean, read-out: Cmax",1440 ng/mL
same,MRT last,[1]; [5],1.51 h
same,MRT inf,[1]; [5],1.73 h
same,Tmax,"[1]; male, ICR, mouse, plasma, iv, 2 mg/kg, IV 2 mg/kg, ICR mice, Mean, read-out: Tmax",0.083 h
same,Vd,[1]; [5],0.968 L/kg
same,half-life,[1]; [5],76.2 min
same,AUC(0-inf),[1]; [6],3830 ng·h/mL
same,clearance,[1]; [6],8.7 mL/min/kg
same,AUC(0-t),"[1]; male, ICR, mouse, plasma, iv, 2 mg/kg, IV 2 mg/kg, ICR mice, individual animal, read-out: AUC(0-t)",3650 ng·h/mL
same,Cmax,"[1]; male, ICR, mouse, plasma, iv, 2 mg/kg, IV 2 mg/kg, ICR mice, individual animal, read-out: Cmax",1270 ng/mL
same,MRT last,[1]; [6],1.58 h
same,MRT inf,[1]; [6],1.88 h
same,Tmax,"[1]; male, ICR, mouse, plasma, iv, 2 mg/kg, IV 2 mg/kg, ICR mice, individual animal, read-out: Tmax",0.08 h
same,Vd,[1]; [6],1.05 L/kg
same,half-life,[1]; [6],84 min
same,AUC(0-inf),[1]; [7],7510 ng·h/mL
same,AUC(0-t),"[1]; male, ICR, mouse, plasma, po, 5 mg/kg, PO 5 mg/kg, ICR mice, Mean, read-out: AUC(0-t)",7330 ng·h/mL
same,Cmax,"[1]; male, ICR, mouse, plasma, po, 5 mg/kg, PO 5 mg/kg, ICR mice, Mean, read-out: Cmax",1760 ng/mL
same,MRT last,[1]; [7],2.64 h
same,MRT inf,[1]; [7],2.82 h
same,Tmax,"[1]; male, ICR, mouse, plasma, po, 5 mg/kg, PO 5 mg/kg, ICR mice, Mean, read-out: Tmax",1.33 h
same,half-life,[1]; [7],84.6 min
same,AUC(0-inf),[1]; [8],6560 ng·h/mL
same,AUC(0-t),"[1]; male, ICR, mouse, plasma, po, 5 mg/kg, PO 5 mg/kg, ICR mice, individual animal, read-out: AUC(0-t)",6320 ng·h/mL
same,Cmax,"[1]; male, ICR, mouse, plasma, po, 5 mg/kg, PO 5 mg/kg, ICR mice, individual animal, read-out: Cmax",1370 ng/mL
same,MRT last,[1]; [8],2.65 h
same,MRT inf,[1]; [8],2.92 h
same,Tmax,"[1]; male, ICR, mouse, plasma, po, 5 mg/kg, PO 5 mg/kg, ICR mice, individual animal, read-out: Tmax",2 h
same,half-life,[1]; [8],94.2 min
same,AUC(0-t),"[1]; male, ICR, mouse, plasma, po, 5 mg/kg, oral intragastric administration 5 mg/kg, read-out: AUC0-t",7330 ng·h/mL
same,IC50,[2],7.39 nM
